Experimental data taken from patent US20100173935A1, “Muscarinic Receptor Agonists that are Effective in the Treatment of Pain, Alzheimer's Disease and Schizophrenia” (AstraZeneca AB, priority 2006, published 2010).

Target: T1, hM1 (human Muscarinic receptor subtype 1) (Homo sapiens, UniProt P11229)
T1 construct: expressed in transfected cells; host or cells: CHO cells (ATCC)
T1 sequence (P11229 1-460): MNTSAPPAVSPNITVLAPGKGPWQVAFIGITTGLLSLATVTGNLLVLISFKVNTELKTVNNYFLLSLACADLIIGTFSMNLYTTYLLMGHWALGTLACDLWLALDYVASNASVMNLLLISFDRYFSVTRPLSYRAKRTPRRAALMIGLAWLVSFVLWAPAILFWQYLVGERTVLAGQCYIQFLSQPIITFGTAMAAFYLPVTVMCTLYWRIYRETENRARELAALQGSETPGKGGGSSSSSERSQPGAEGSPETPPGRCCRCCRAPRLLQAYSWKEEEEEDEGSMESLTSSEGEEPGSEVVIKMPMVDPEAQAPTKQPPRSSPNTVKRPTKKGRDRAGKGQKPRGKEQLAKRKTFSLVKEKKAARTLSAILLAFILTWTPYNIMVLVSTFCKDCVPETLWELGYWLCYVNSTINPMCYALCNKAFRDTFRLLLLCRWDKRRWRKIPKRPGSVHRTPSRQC
Assay: Human M1 calcium mobilization FLIPR assay
Assay type: cell-based
Details: CHO cells expressing hM1, Ca2+ release
Description: The compound activity in the present invention (EC50 or IC50) was measured using a 384 plate-based imaging assay that monitors drug induced intracellular Ca^2+ release in whole cells. Activation of hM1 (human Muscarinic receptor subtype 1, gene bank access NM_000738), rM1 (rat Muscarinic receptor subtype 1, gene bank access NM_080773), hM3 (human Muscarinic receptor subtype 3, gene bank access NM_000740NM_000740) and hM5 (human Muscarinic receptor subtype 5, gene bank access NM_0121258), receptors expressed in CHO cells (chinese hamster ovary cells, ATCC) was quantified in a Molecular Devices FLIPR II™ instrument as an increase in fluorescent signal. Inhibition of hM3 and hM5 by compounds was determined by the decrease in fluorescent signal in response to 20 nM carbachol activation.
CHO cells were plated in 384-black polylysine coated plate (Costar) at 8000 cells/well/50 μl for 24 hours or 4000 cells/well for 48 hours in a humidified incubator (5% CO2 and 37° C.) in DMEM/F12 medium without selection agent. Prior to the experiment the cell culture medium was removed from the plates by inversion. A loading solution of 30 μl of Hank's balanced salt solution, 10 mM Hepes and 2.5 mM Probenicid at Ph 7.4 (Cat no. 311-520-VL, Wisent) with 2 μM calcium indicator dye (FLUO-3AM, Molecular Probes F14202) was added to each well. Plates were incubated at 37° C. for 60 minutes prior to start the experiment. The incubation was terminated by washing the cells four times in assay buffer, leaving a residual 25 μl buffer per well. Cell plates were then transferred to the FLIPR, ready for compound additions.
The day of experiment, carbachol and compounds were diluted in three-fold concentration range (10 points serial dilution) for addition by FLIPR instrument. For all calcium assays, a baseline reading was taken for 30 seconds followed by the addition of 12.5 μl (25 μl for hM1 and rM1) of compounds, resulting in a total well volume of 37.5 μl (50 μl for hM1 and rM1). Data were collected every 1.6 seconds for 300 seconds. For hM3 and hM5 an additional 12.5 μl of carbachol (20 nM final) was added at 300 seconds. After this addition of carbachol (producing a final volume of 50 μl), the FLIPR continued to collect data every 2 seconds for 240 seconds. The fluorescence emission was read using filter 1 (emission 520-545 nm) by the FLIPR on board CCD camera.
Calcium mobilization output data were calculated as the maximal relative fluorescence unit (RFU) minus the minal value for both compound and agonist reading frame (except for hM1 and rM1 using only the maximal RFU). Data were analyzed using sigmoidal fits of a non-linear curve-fitting program (XLfit version 5.0.6 from ID Business Solutions Limited, Guildford, UK). All EC50 and IC50 values are reported as arithmetic means±standard error of mean of ‘n’ independent experiments.

Structure (SMILES)	EC50 [nM]
CCOC(=O)N1CCC(N2CCC(n3c(=O)n(C)c4ccccc43)CC2)C1 (centres unmarked) [Example 10, Ethyl 3-[4-(3-methyl-2-oxo-2,3-dihydro-1H-benzimidazol-1-yl)piperidin-1-yl]pyrrolidine-1-carboxylate]	286
CCOC(=O)N1CCC(N2CCC(n3nnc4ccccc43)CC2)C1 (centres unmarked) [Example 11, ethyl 3-[4-(1H-1,2,3-benzotriazol-1-yl)piperidin-1-yl]pyrrolidine-1-carboxylate]	612
CCOC(=O)N1CC[C@H](N2CCC(n3c(=O)[nH]c4ccc(OC)cc43)CC2)C1 (single isomer, unassigned) [Example 39]	21.9
CCOC(=O)N1CCC(N2CCC(=C3C(=O)Nc4ccccc43)CC2)C1 (centres unmarked) [Example 12, Ethyl 3-[4-(2-oxo-1,2-dihydro-3H-indol-3-ylidene)piperidin-1-yl]pyrrolidine-1-carboxylate]	2690
CCOC(=O)N1CCC(N2CCC(n3c(=O)[nH]c4ccc(C)cc43)CC2)C1 (single isomer, unassigned) [Example 38]	7.9
Cn1cccc1C(=O)N1CC[C@H](N2CCC(n3c(=O)[nH]c4ccccc43)CC2)C1 [Example 21, 1-(1-{(3S)-1-[(1-methyl-1H-pyrrol-2-yl)carbonyl]pyrrolidin-3-yl}piperidin-4-yl)-1,3-dihydro-2H-benzimidazol-2-one]	1180
CCOC(=O)N1CC[C@H](N2CCC(n3c(=O)[nH]c4ccc(C)cc43)CC2)C1 (single isomer, unassigned) [Example 37]	0.6
CCOC(=O)N1CCC(N2C3CCC2CC(n2c(=O)[nH]c4ccccc42)C3)C1 (centres unmarked) [Example 30, Ethyl 3-[3-(2-oxo-2,3-dihydro-1H-benzimidazol-1-yl)-8-azabicyclo[3.2.1]oct-8-yl]pyrrolidine-1-carboxylate]	518
